Measurements published in DBAASP.
≈ marks a conversion by molar mass, not a printed value.

Columns and labels:
Experiment in all cases: ≥ marks a high value that may be exact or a test limit, other limits are often not marked, values filed in µg/mL are converted to µM
[1] = tested on: Streptococcus mutans UA159
[2] = tested on: Streptococcus sanguinis NY101
[3] = tested on: Streptococcus mitis ATCC 903
[4] = tested on: Streptococcus gordonii Challis DL1
[5] = tested on: Pseudomonas aeruginosa PAK
Staphylococcus aureus = tested on: Staphylococcus aureus
[6] = tested on: Corynebacterium xerosis C875
[7] = tested on: Staphylococcus epidermidis C621
Escherichia coli DC2 = tested on: Escherichia coli DC2
Escherichia coli UB1005 = tested on: Escherichia coli UB1005
[8] = tested on: Staphylococcus aureus TK784
[9] = tested on: Bacillus subtilis ATCC 6633
[10] = tested on: Staphylococcus aureus ATCC 6538P
[11] = tested on: Salmonella enterica subsp. enterica serovar Typhimurium ATCC 14028
[12] = tested on: Pseudomonas aeruginosa ATCC 27853
[13] = tested on: Micrococcus luteus ATCC 10240
[14] = tested on: Klebsiella pneumoniae ATCC 10031
[15] = tested on: Shigella dysenteriae ATCC 9752
[16] = tested on: Staphylococcus epidermidis ATCC 12228
[17] = tested on: Escherichia coli ATCC 25922
[18] = tested on: Staphylococcus aureus ATCC BAA-1556

CC[C@H](C)[C@H](NC(=O)[C@H](Cc1ccccc1)NC(=O)[C@H](Cc1cnc[nH]1)NC(=O)[C@H](CCCCN)NC(=O)[C@@H](NC(=O)[C@@H](N)Cc1ccccc1)[C@@H](C)CC)C(=O)N[C@@H](Cc1cnc[nH]1)C(=O)N[C@@H](CCCN=C(N)N)C(=O)N[C@@H](Cc1ccccc1)C(=O)N[C@@H](CO)C(=O)NCC(=O)NCC(=O)N[C@@H](CCCN=C(N)N)C(=O)N[C@@H](Cc1c[nH]c2ccccc12)C(=O)N[C@@H](CCCN=C(N)N)C(=O)N[C@@H](Cc1c[nH]c2ccccc12)C(=O)N[C@@H](CCCN=C(N)N)C(=O)N[C@@H](Cc1c[nH]c2ccccc12)C(=O)N[C@@H](Cc1ccccc1)C(N)=O [FIKHFIHRFSGGRWRWRWF]
MIC [1]: 3.05 µM (≈ 8 µg/mL)
MIC [2]: 12.2 µM (≈ 32 µg/mL)
MIC [3]: 12.2 µM (≈ 32 µg/mL)
MIC [4]: 12.2 µM (≈ 32 µg/mL)
MIC [5]: 23.9 µM (≈ 62.5 µg/mL)
MIC (Staphylococcus aureus): 12.2 µM (≈ 32 µg/mL)

C[C@H](NC(=O)[C@H](C)NC(=O)[C@H](C)NC(=O)[C@H](CCCCN)NC(=O)[C@H](C)NC(=O)[C@H](C)NC(=O)[C@H](C)NC(=O)[C@H](CCCCN)NC(=O)[C@@H](N)CCCCN)C(=O)N[C@@H](C)C(=O)N[C@@H](C)C(=O)N[C@@H](CCCCN)C(=O)N[C@@H](C)C(=O)N[C@@H](C)C(=O)N[C@@H](Cc1c[nH]c2ccccc12)C(=O)N[C@@H](C)C(=O)N[C@@H](C)C(=O)N[C@@H](CCCCN)C(=O)N[C@@H](C)C(=O)N[C@@H](C)C(=O)N[C@@H](C)C(=O)N[C@@H](CCCCN)C(=O)N[C@@H](CCCCN)C(=O)N[C@@H](CCCCN)C(=O)N[C@@H](CCCCN)C(N)=O [KKAAAKAAAAAKAAWAAKAAAKKKK]
MIC [6]: 16 µM (≈ 38.8 µg/mL)
MIC [7]: ≥ 64 µM
MIC (Escherichia coli DC2): ≥ 64 µM
MIC (Escherichia coli UB1005): ≥ 64 µM

CSCC[C@H](NC(=O)[C@H](C)NC(=O)[C@H](C)NC(=O)[C@H](C)NC(=O)[C@H](CCCCN)NC(=O)[C@@H](N)CCCCN)C(=O)N[C@@H](C)C(=O)N[C@@H](C)C(=O)N[C@@H](C)C(=O)N[C@@H](C)C(=O)N[C@@H](C)C(=O)N[C@@H](CCSC)C(=O)N[C@@H](C)C(=O)N[C@@H](C)C(=O)N[C@@H](Cc1c[nH]c2ccccc12)C(=O)N[C@@H](C)C(=O)N[C@@H](C)C(=O)N[C@@H](CCSC)C(=O)N[C@@H](C)C(=O)N[C@@H](C)C(=O)N[C@@H](C)C(=O)N[C@@H](CCCCN)C(=O)N[C@@H](CCCCN)C(=O)N[C@@H](CCCCN)C(=O)N[C@@H](CCCCN)C(N)=O [KKAAAMAAAAAMAAWAAMAAAKKKK]
MIC [6]: 0.5 µM (≈ 1.22 µg/mL)
MIC [7]: 16 µM (≈ 38.9 µg/mL)
MIC (Escherichia coli DC2): ≥ 32 µM
MIC (Escherichia coli UB1005): ≥ 32 µM

CC(C)C[C@H](NC(=O)[C@H](CC(C)C)NC(=O)[C@H](CCCCN)NC(=O)[C@H](CCCCN)NC(=O)[C@H](CC(C)C)NC(=O)[C@H](CC(C)C)NC(=O)[C@H](CCCCN)NC(=O)[C@H](CCCCN)NC(=O)[C@H](CC(C)C)NC(=O)[C@H](Cc1c[nH]c2ccccc12)NC(=O)[C@@H](N)CCCCN)C(N)=O [KWLKKLLKKLL]
MIC [8]: 5.67 µM (≈ 7.99 µg/mL)
MIC [9]: 1.42 µM (≈ 2 µg/mL)
MIC [10]: 1.42 µM (≈ 2 µg/mL)
MIC [11]: 1.42 µM (≈ 2 µg/mL)
MIC [12]: 5.67 µM (≈ 7.99 µg/mL)
MIC [13]: 2.84 µM (≈ 4 µg/mL)
MIC [14]: 1.42 µM (≈ 2 µg/mL)
MIC [15]: 0.709 µM (≈ 0.999 µg/mL)
MIC [16]: 1.42 µM (≈ 2 µg/mL)
MIC [17]: 1.42 µM (≈ 2 µg/mL)

CC(C)C[C@H](NC(=O)[C@H](CCCCN)NC(=O)[C@H](CC(C)C)NC(=O)[C@H](CC(C)C)NC(=O)[C@H](CC(C)C)NC(=O)[C@H](CC(C)C)NC(=O)[C@H](CC(C)C)NC(=O)[C@H](CCCCN)NC(=O)[C@@H](N)CC(C)C)C(N)=O [LKLLLLLKL]
MIC [18]: ≥ 100 µM

CC(C)C[C@H](NC(=O)[C@H](CC(C)C)NC(=O)[C@H](Cc1c[nH]c2ccccc12)NC(=O)[C@H](CCCCN)NC(=O)[C@H](CC(C)C)NC(=O)[C@H](CC(C)C)NC(=O)[C@H](Cc1c[nH]c2ccccc12)NC(=O)[C@H](CCCCN)NC(=O)[C@@H](N)CC(C)C)C(N)=O [LKWLLKWLL]
MIC [8]: 2.06 µM (≈ 2.5 µg/mL)
MIC [9]: 1.07 µM (≈ 1.3 µg/mL)
MIC [10]: 1.07 µM (≈ 1.3 µg/mL)
MIC [11]: 8.25 µM (≈ 9.99 µg/mL)
MIC [12]: 8.25 µM (≈ 9.99 µg/mL)
MIC [13]: 2.06 µM (≈ 2.5 µg/mL)
MIC [14]: 4.12 µM (≈ 5 µg/mL)
MIC [15]: 2.06 µM (≈ 2.5 µg/mL)
MIC [16]: 1.07 µM (≈ 1.3 µg/mL)
MIC [17]: 4.12 µM (≈ 5 µg/mL)

CC(C)C[C@H](NC(=O)[C@H](CC(C)C)NC(=O)[C@H](CC(C)C)NC(=O)[C@H](CCCCN)NC(=O)[C@H](CC(C)C)NC(=O)[C@H](CC(C)C)NC(=O)[C@H](CC(C)C)NC(=O)[C@@H](N)CC(C)C)C(=O)N[C@@H](CCCCN)C(N)=O [LLLLKLLLK]
MIC [18]: ≥ 100 µM
